The values that follow come from patent publication US9394268B2, “(E)-1-(5-methoxy-2,2-dimethyl-2H-chromen-8-yl)-3-(4-methoxyphenyl)prop-2-en-1-one and analogs thereof, as well as preparation method and use thereof” (Sichuan University, priority 2012, dated 2016).

What all share (format): cell-based
One test has as its system HepG2. The experiment in a line: Cell proliferative assay (MTT), HepG2. As to conditions: Homo sapiens, 72 h incubation, read-out: IC50s HepG2. In outline:
(§1)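 Cells were seeded and allowed 24 h before exposure to test compounds at various doses for 72 h. Viability was read by MTT absorbance at 590 nm, and IC50 values were taken from dose-response curves as mean±SEM of at least three independent experiments.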

For the next test, the system named is SW620. Nature of the test: Cell proliferative assay (MTT), SW620. As to conditions: Homo sapiens, SW-620, 72 h incubation, read-out: IC50s SW620. How it is done: (§2) The synthesized compounds were evaluated for their cytotoxin activity against suspended tumor cells. These cells were seeded on 96-well plates and incubated for 24 h. Selected compounds were added at various doses and incubated for 72 h, MTT was then added, and the absorbance was measured at a wavelength of 590 nm. IC50 values are expressed as the mean±SEM from the dose-response curves of at least three independent experiments.

For another test, the system named is HT29. The experiment in a line: Cell proliferative assay (MTT), HT29. As to conditions: Homo sapiens, HT-29, 72 h incubation, read-out: IC50s HT29. How it is done: as §2
For another test, the system named is K562. The experiment in a line: Cell proliferative assay (MTT), K562. As to conditions: Homo sapiens, 72 h incubation, read-out: IC50s K562. In a few lines:
as §1

Another test concerns HCT116. Nature of the test: Cell proliferative assay (MTT), HCT116. As to conditions: Homo sapiens, HCT-116, 72 h incubation, read-out: IC50s HCT116. How it is done:
as §2

The next test concerns tumor cells. The experiment in a line: Cell proliferative assay (MTT), summary over tumor cells. As to conditions: summary in words of Table 1; colon, liver, leukemia lines. How it is done: as §2
A further test concerns A549. The experiment in a line: Cell proliferative assay (MTT), A549. As to conditions: Homo sapiens, 72 h incubation, read-out: IC50s A549. In a few lines:
as §1

In a further test the test system is A375. The experiment in a line: Cell proliferative assay (MTT), A375. As to conditions: Homo sapiens, A-375, 72 h incubation, read-out: IC50s A375. In outline:
as §1

The subject of another test is SMMC-7221. Nature of the test: Cell proliferative assay (MTT), SMMC-7221. As to conditions: 72 h incubation, read-out: IC50s SMMC-7221. In a few lines: as §1
The subject of the next test is LO2. Nature of the test: Cell proliferative assay (MTT), LO2. As to conditions: Homo sapiens, L02, 72 h incubation, read-out: IC50s LO2. In outline:
as §1

pIC50: −log10 of the molar value.

In the case of `COc1ccc(/C=C/C(=O)c2ccc(OC)c3c2OC(C)(C)C=C3)c(F)c1` [SKLBC-4, (E)-3-(2-fluoro-4-methoxyphenyl)-1-(5-methoxy-2,2-dimethyl-2H-chromen-8-yl)prop-2-en-1-one], the pIC50 with HepG2 is 5.12; in the test on SW620 it was 5.18; with HT29, < 5.00; in the test on K562, < 5.00; in the test on HCT116 it was < 5.00. The “inhibitory activity against tumor cells” value in the test on tumor cells is “better inhibitory activity”.

As to `COc1ccc(C(=O)/C=C/c2ccc3ccccc3c2)c2c1C=CC(C)(C)O2` [SKLBC-10, (E)-1-(5-methoxy-2,2-dimethyl-2H-chromen-8-yl)-3-(naphthalen-2-yl)prop-2-en-1-one], the pIC50 in the test with HepG2 was 6.68; with SW620, 5.67; in the test with HT29 it was 5.35; in the test with K562, 5.44; in the test with HCT116, < 5.00. Also, the “inhibitory activity against tumor cells” value in the test on tumor cells is “better inhibitory activity”.

Take `CCN(CC)c1ccc(/C=C/C(=O)c2ccc(OC)c3c2OC(C)(C)C=C3)cc1` [SKLBC-12, (E)-3-(4-(diethylamino)phenyl)-1-(5-methoxy-2,2-dimethyl-2H-chromen-8-yl)prop-2-en-1-one]: the pIC50 in the test on HepG2 was 5.64; in the test with SW620 it was < 5.00; with HT29, 5.88; in the test with K562, 5.34; in the test with HCT116, < 5.00. Further, the “inhibitory activity against tumor cells” value in the test on tumor cells is on record as “better inhibitory activity”.

As to `COc1ccc(C(=O)/C=C/c2ccc(N3CCCC3)cc2)c2c1C=CC(C)(C)O2` [SKLBC-14, (E)-1-(5-methoxy-2,2-dimethyl-2H-chromen-8-yl)-3-(4-(pyrrolidin-1-yl)phenyl)prop-2-en-1-one], the pIC50 was 5.32 in the test with HepG2; < 5.00 in the test on SW620; < 5.00 in the test with HT29; < 5.00 with K562; 5.05 in the test on HCT116. Besides, in the test with tumor cells, the “inhibitory activity against tumor cells” value is listed as “better inhibitory activity”.

As for `COc1ccc(C(=O)/C=C/c2ccc3ccccc3n2)c2c1C=CC(C)(C)O2` [SKLBC-16, (E)-1-(5-methoxy-2,2-dimethyl-2H-chromen-8-yl)-3-(quinolin-2-yl)prop-2-en-1-one], the pIC50 in the test with HepG2 is 5.37; in the test on SW620, 5.65; with HT29 it was 5.42; in the test with K562, 5.52; with HCT116 it was < 5.00. The “inhibitory activity against tumor cells” value in the test with tumor cells is on record as “better inhibitory activity”.

For `COc1ccc(C(=O)/C=C/c2ccc([N+](=O)[O-])cc2)c2c1C=CC(C)(C)O2` [SKLBC-17, (E)-1-(5-methoxy-2,2-dimethyl-2H-chromen-8-yl)-3-(4-nitrophenyl)prop-2-en-1-one], the pIC50 was 5.58 in the test on HepG2; 5.45 in the test on SW620; 5.43 in the test on HT29; 5.11 with K562; < 5.00 in the test with HCT116. The “inhibitory activity against tumor cells” value in the test on tumor cells is “better inhibitory activity”.

In the case of `COc1ccc(C(=O)/C=C/c2cccc([N+](=O)[O-])c2)c2c1C=CC(C)(C)O2` [SKLBC-18, (E)-1-(5-methoxy-2,2-dimethyl-2H-chromen-8-yl)-3-(3-nitrophenyl)prop-2-en-1-one], the pIC50 with HepG2 was 5.55; with SW620 it was 5.39; with HT29, 5.37; with K562, 5.23; with HCT116, 5.09. For the same molecule, in the test with tumor cells, the “inhibitory activity against tumor cells” value was “better inhibitory activity”.

`COc1ccc(/C=C/C(=O)c2ccc(OC)c3c2OC(C)(C)C=C3)cc1O` [SKLBC-28, (E)-3-(3-hydroxy-4-methoxyphenyl)-1-(5-methoxy-2,2-dimethyl-2H-chromen-8-yl)prop-2-en-1-one]: the pIC50 is 6.11 in the test on HepG2; 6.17 with SW620; 5.83 in the test with HT29; 5.45 with K562; 5.79 with HCT116. For the same molecule, the “inhibitory activity against tumor cells” value in the test on tumor cells was “better inhibitory activity”.

In the case of `COc1ccccc1/C=C/C(=O)c1ccc(OC)c2c1OC(C)(C)C=C2` [SKLBC-40, (E)-1-(5-methoxy-2,2-dimethyl-2H-chromen-8-yl)-3-(2-methoxyphenyl)prop-2-en-1-one], the pIC50 with HepG2, with SW620, in the test on HT29, in the test with K562 and in the test with HCT116 was < 5.00 in each case.

Consider `CCOc1ccc(C(=O)/C=C/c2ccc(N(CC)CC)cc2)c2c1C=CC(C)(C)O2` [SKLBC-41, (E)-3-(4-(diethylamino)phenyl)-1-(5-ethoxy-2,2-dimethyl-2H-chromen-8-yl)prop-2-en-1-one], for which the “inhibitory activity against tumor cells” value in the test on tumor cells is recorded as “better inhibitory activity”.

In the case of `CCN(CC)c1ccc(/C=C/C(=O)c2ccc(OS(=O)(=O)c3ccc(C)cc3)c3c2OC(C)(C)C=C3)cc1` [SKLBC-46, (E)-8-(3-(4-(diethylamino)phenyl)acryloyl)-2,2-dimethyl-2H-chromen-5-yl 4-methylbenzenesulfonate], the pIC50 with HepG2 is 5.01; with K562, 5.35; with A549 it was 5.01; with A375, 5.08; with SMMC-7221, < 5.00; with LO2, 5.09. Further, in the test on tumor cells, the “inhibitory activity against tumor cells” value was “better inhibitory activity”.

With `CCN(CC)c1ccc(/C=C/C(=O)c2ccc(OS(C)(=O)=O)c3c2OC(C)(C)C=C3)cc1` [SKLBC-47, (E)-8-(3-(4-(diethylamino)phenyl)acryloyl)-2,2-dimethyl-2H-chromen-5-yl methanesulfonate], the pIC50 with HepG2 was 6.73; with K562 it was 6.28; in the test on A549 it was 5.07; in the test with A375, 6.35; in the test with SMMC-7221, 6.64; with LO2, < 4.70. Also, the “inhibitory activity against tumor cells” value in the test on tumor cells is reported as “better inhibitory activity”.

With `C=CC(=O)Oc1ccc(C(=O)/C=C/c2ccc(N(CC)CC)cc2)c2c1C=CC(C)(C)O2` [SKLBC-49, (E)-8-(3-(4-(diethylamino)phenyl)acryloyl)-2,2-dimethyl-2H-chromen-5-yl acrylate], the pIC50 in the test with HepG2 is 5.26; with K562, 5.53; in the test on A549 it was 5.16; in the test on A375, 5.39; in the test on SMMC-7221, 5.07; with LO2, 5.07. The “inhibitory activity against tumor cells” value in the test on tumor cells is listed as “better inhibitory activity”.

For the molecule `CCN(CC)c1ccc(/C=C/C(=O)c2ccc(OC(=O)c3ccco3)c3c2OC(C)(C)C=C3)cc1` [SKLBC-50, (E)-8-(3-(4-(diethylamino)phenyl)acryloyl)-2,2-dimethyl-2H-chromen-5-yl furan-2-carboxylate], the pIC50 is 6.15 with HepG2; 6.23 in the test with K562; 5.79 with A549; 5.04 in the test with A375; 5.01 in the test on SMMC-7221; < 4.70 with LO2. In addition, the “inhibitory activity against tumor cells” value in the test on tumor cells is “better inhibitory activity”.

Turning to `CCN(CC)c1ccc(/C=C/C(=O)c2ccc(OC(=O)C(C)C)c3c2OC(C)(C)C=C3)cc1` [SKLBC-52, (E)-8-(3-(4-(diethylamino)phenyl)acryloyl)-2,2-dimethyl-2H-chromen-5-yl isobutyrate], the pIC50 in the test with HepG2 was 6.23; in the test with K562 it was 6.50; in the test with A549 it was 6.03; in the test with A375, 6.21; with SMMC-7221, 6.11; with LO2, < 5.00. The “inhibitory activity against tumor cells” value in the test with tumor cells was “better inhibitory activity”.

On to `CCN(CC)c1ccc(/C=C/C(=O)c2ccc(OC(=O)C3CC3)c3c2OC(C)(C)C=C3)cc1` [SKLBC-54, (E)-8-(3-(4-(diethylamino)phenyl)acryloyl)-2,2-dimethyl-2H-chromen-5-yl cyclopropanecarboxylate], for which the pIC50 was 6.27 in the test on HepG2; 6.29 in the test with K562; 6.39 with A549; 6.58 in the test on A375; 6.11 with SMMC-7221; < 5.00 in the test with LO2. The “inhibitory activity against tumor cells” value in the test on tumor cells is “better inhibitory activity”.

Take `CCN(CC)c1ccc(/C=C/C(=O)c2ccc(OC(=O)Cc3cccc(C(F)(F)F)c3)c3c2OC(C)(C)C=C3)cc1` [SKLBC-55, (E)-8-(3-(4-(diethylamino)phenyl)acryloyl)-2,2-dimethyl-2H-chromen-5-yl 2-(3-(trifluoromethyl)phenyl)acetate]: the pIC50 is 5.97 in the test on HepG2; 5.98 in the test with K562; 6.30 in the test on A549; 6.32 in the test with A375; 5.79 with SMMC-7221; < 5.00 in the test with LO2. The “inhibitory activity against tumor cells” value with tumor cells is reported as “better inhibitory activity”.
